Like-named read-outs stand apart in the source and are kept apart here.
Legend:
[1] = tested on: Colletotrichum truncatum; experiment: Synergistic mixtures, microtiter test, Colletotrichum truncatum (Use Example 28); format: cell-based; details: single compound
[2] = tested on: Pyricularia oryzae; format: cell-based; details: single compound
[3] = tested on: Septoria tritici; experiment: Synergistic mixtures, microtiter test, leaf blotch pathogen Septoria tritici (Use Example 26); format: cell-based; details: single compound
[4] = tested on: Gaeumannomyces graminis; experiment: Synergistic mixtures, microtiter test, Gaeumannomyces graminis (Use Example 30); format: cell-based; details: single compound
[5] = tested on: Alternaria solani; experiment: Synergistic mixtures, microtiter test, early blight pathogen Alternaria solani (Use Example 24); format: cell-based; details: single compound, 0.063 ppm
[6] = tested on: Puccinia recondita; experiment: Synergistic mixtures, greenhouse, preventative control of brown rust on wheat caused by Puccinia recondita (Use Example 34); format: in vivo; details: single compound, untreated control 90% disease
Method: These percentages were converted into efficacies. An efficacy of 0 means that the growth level of the pathogens corresponds to that of the untreated control; an efficacy of 100 means that the pathogens were not growing.
The expected efficacies of active compound mixtures were determined using Colby's formula [R. S. Colby, Calculating synergistic and antagonistic responses of herbicide combinations, Weeds 15, 20-22 (1967)] and compared with the observed efficacies. E=x+y−x·y/100 Colby's formula • E expected efficacy, expressed in % of the untreated control, when using the mixture of the compounds A and B at the concentration a and b • x efficacy, expressed in % of the untreated control, when using compound A at a concentration of a • y efficacy, expressed in % of the untreated control, when using compound B at a concentration of b A) Microtiter Tests
The spray solutions were prepared in several steps:
The stock solution were prepared as follows: a mixture of acetone and/or dimethylsulfoxide and the wetting agent/emulsifier Wettol, which is based on ethoxylated alkylphenoles, in a relation (volume) solvent-emulsifier of 99 to 1 was added to 25 mg of the compound to give a total of 10 ml. Water was then added to total volume of 100 ml.
This stock solution was diluted with the described solvent-emulsifier-water mixture to the given concentration. The compounds pyraclostrobin, boscalid and epoxiconazole were used as commercial finished formulations and diluted with water to the stated concentration of the active compound.
The first two developed leaves of pot-grown wheat seedling were sprayed to run-off with an aqueous suspension, containing the concentration of active ingredient or their mixture as described below. The next day the plants were inoculated with spores of Puccinia recondita. To ensure the success the artificial inoculation, the plants were transferred to a humid chamber without light and a relative humidity of 95 to 99% and at temperatures between 20 and 24° C. for 24 h. Then, the plants were cultivated for 6 days in a greenhouse chamber at 20 to 24° C. and a relative humidity between 65 and 70%. The extent of fungal attack on the leaves was visually assessed as % diseased leaf area.

[7] = tested on: Pyrenophora teres; experiment: Synergistic mixtures, microtiter test, net blotch pathogen Pyrenophora teres (Use Example 29); format: cell-based; details: single compound
[8] = tested on: Fusarium culmorum; experiment: Synergistic mixtures, microtiter test, Fusarium culmorum (Use Example 27); format: cell-based; details: single compound
[9] = tested on: Thielaviopsis basicola; experiment: Synergistic mixtures, microtiter test, Thielaviopsis basicola (Use Example 31); format: cell-based; details: single compound
[10] = tested on: Phytophthora infestans; format: cell-based; details: single compound
[11] = tested on: Verticillium dahliae; details: single compound
[12] = tested on: Fusarium oxysporum; details: single compound, 0.25 ppm

`COc1cc(CNS(=O)(=O)c2ccc(Oc3ccc(C(F)(F)F)cn3)cc2)ccn1` [Example 12] was tested, and the “Observed efficacy (%)” value ([1]; 16 ppm) was 50%, the “Observed efficacy (%)” value ([2]; 0.063 ppm) was 45% and the “Observed efficacy (%)” value ([3]; 4 ppm) was 47%. For the same molecule, the “Observed efficacy (%)” value ([4]; 0.016 ppm) was 30%, the “Observed efficacy (%)” value [5] was 6% and the “Observed efficacy (%)” value ([6]; 0.25 ppm) was 0%. The “Observed efficacy (%)” value ([6]; 1 ppm) was 22%, the “Observed efficacy (%)” value ([7]; 0.063 ppm) was 25% and the “Observed efficacy (%)” value ([8]; 16 ppm) was 3%.

`Cc1nccc(CNS(=O)(=O)c2ccc(Oc3ncccc3C(F)(F)F)cc2)c1C` [Example 28] was tested, and the “Observed efficacy (%)” value ([1]; 4 ppm) was 20%, the “Observed efficacy (%)” value ([9]; 16 ppm) was 23% and the “Observed efficacy (%)” value ([10]; 0.016 ppm) was 10%. For the same molecule, the “Observed efficacy (%)” value ([2]; 0.063 ppm) was 27%, the “Observed efficacy (%)” value ([2]; 0.25 ppm) was 52% and the “Observed efficacy (%)” value ([3]; 4 ppm) was 29%. The “Observed efficacy (%)” value ([4]; 0.063 ppm) was 29%, the “Observed efficacy (%)” value ([6]; 1 ppm) was 0% and the “Observed efficacy (%)” value ([7]; 0.25 ppm) was 4%. For the same molecule, the “Observed efficacy (%)” value ([8]; 16 ppm) was 1%.

With `COc1cnccc1CNS(=O)(=O)c1ccc(Oc2nccc(C(F)(F)F)n2)cc1` [Example 64] the “Observed efficacy (%)” value ([9]; 16 ppm) was 20%, the “Observed efficacy (%)” value ([2]; 1 ppm) was 12% and the “Observed efficacy (%)” value [5] was 0%. The “Observed efficacy (%)” value ([6]; 4 ppm) was 0%, the “Observed efficacy (%)” value ([6]; 16 ppm) was 0% and the “Observed efficacy (%)” value ([7]; 0.25 ppm) was 5%. The “Observed efficacy (%)” value ([8]; 16 ppm) was 0%.

`O=C(Nc1ccccc1-c1ccc(Cl)cc1)c1cccnc1Cl` [Boscalid, reference compound] was tested, and the “Observed efficacy (%)” value ([10]; 0.016 ppm) was 5%, the “Observed efficacy (%)” value [5] was 23% and the “Observed efficacy (%)” value ([6]; 0.25 ppm) was 0%. For the same molecule, the “Observed efficacy (%)” value ([6]; 1 ppm) was 0%, the “Observed efficacy (%)” value ([6]; 4 ppm) was 0% and the “Observed efficacy (%)” value ([6]; 16 ppm) was 0%. For the same molecule, the “Observed efficacy (%)” value ([7]; 0.25 ppm) was 49% and the “Observed efficacy (%)” value ([8]; 16 ppm) was 1%.

In the case of `O=C1C2CC=CCC2C(=O)N1SC(Cl)(Cl)Cl` (centres unmarked) [Captan, reference compound], the “Observed efficacy (%)” value ([11]; 0.25 ppm) is reported as 26%, the “Observed efficacy (%)” value ([9]; 0.25 ppm) is reported as 40% and the “Observed efficacy (%)” value ([10]; 0.004 ppm) is reported as 0%. For the same molecule, the “Observed efficacy (%)” value ([10]; 0.063 ppm) was 7%, the “Observed efficacy (%)” value ([10]; 0.25 ppm) was 3% and the “Observed efficacy (%)” value ([2]; 0.063 ppm) was 0%. The “Observed efficacy (%)” value ([3]; 1 ppm) was 31%, the “Observed efficacy (%)” value ([4]; 0.016 ppm) was 12% and the “Observed efficacy (%)” value ([4]; 0.063 ppm) was 42%. The “Observed efficacy (%)” value ([7]; 0.016 ppm) was 5%, the “Observed efficacy (%)” value ([7]; 0.063 ppm) was 16% and the “Observed efficacy (%)” value ([8]; 4 ppm) was 39%.

`N#Cc1c(Cl)c(Cl)c(Cl)c(C#N)c1Cl` [Chlorothalonil, reference compound] was tested, and the “Observed efficacy (%)” value ([11]; 1 ppm) was 40%, the “Observed efficacy (%)” value ([9]; 1 ppm) was 56% and the “Observed efficacy (%)” value ([10]; 0.004 ppm) was 4%. For the same molecule, the “Observed efficacy (%)” value ([10]; 0.25 ppm) was 10%, the “Observed efficacy (%)” value ([2]; 0.063 ppm) was 0% and the “Observed efficacy (%)” value ([4]; 0.004 ppm) was 0%. The “Observed efficacy (%)” value ([4]; 0.016 ppm) was 9% and the “Observed efficacy (%)” value ([8]; 4 ppm) was 5%.

With `COC(=O)N(OC)c1ccccc1COc1ccn(-c2ccc(Cl)cc2)n1` [Pyraclostrobin, reference compound] the “Observed efficacy (%)” value ([1]; 0.063 ppm) was 27%, the “Observed efficacy (%)” value ([1]; 0.25 ppm) was 60% and the “Observed efficacy (%)” value ([9]; 0.25 ppm) was 19%. The “Observed efficacy (%)” value ([10]; 0.00025 ppm) was 8%, the “Observed efficacy (%)” value [12] was 0% and the “Observed efficacy (%)” value ([2]; 0.001 ppm) was 17%. The “Observed efficacy (%)” value ([4]; 0.00025 ppm) was 29%, the “Observed efficacy (%)” value ([4]; 0.001 ppm) was 57% and the “Observed efficacy (%)” value ([6]; 0.016 ppm) was 0%. For the same molecule, the “Observed efficacy (%)” value ([6]; 0.063 ppm) was 0%, the “Observed efficacy (%)” value ([6]; 0.25 ppm) was 0% and the “Observed efficacy (%)” value ([7]; 0.016 ppm) was 52%. For the same molecule, the “Observed efficacy (%)” value ([8]; 0.25 ppm) was 0%.

With `COc1cc(CNS(=O)(=O)c2ccc(Oc3ccc(Cl)cn3)cc2)ccn1` [Example 74] the “Observed efficacy (%)” value ([1]; 16 ppm) was 35%, the “Observed efficacy (%)” value ([9]; 1 ppm) was 32% and the “Observed efficacy (%)” value ([3]; 4 ppm) was 58%. For the same molecule, the “Observed efficacy (%)” value [5] was 0%, the “Observed efficacy (%)” value ([6]; 16 ppm) was 44% and the “Observed efficacy (%)” value ([7]; 0.25 ppm) was 33%. The “Observed efficacy (%)” value ([8]; 16 ppm) was 1%.

With `Fc1ccc([C@]2(Cn3cncn3)O[C@H]2c2ccccc2Cl)cc1` [Epoxiconazol, reference compound] the “Observed efficacy (%)” value ([10]; 0.001 ppm) was 0%, the “Observed efficacy (%)” value ([2]; 0.063 ppm) was 0% and the “Observed efficacy (%)” value ([4]; 0.004 ppm) was 2%. The “Observed efficacy (%)” value ([6]; 0.063 ppm) was 0%, the “Observed efficacy (%)” value ([6]; 0.25 ppm) was 0% and the “Observed efficacy (%)” value ([6]; 1 ppm) was 33%.

— US8299262B2, “Pyridylmethyl-sulfonamide compounds” (BASF SE, priority 2007, dated 2012)
